Experimental data as given in the CheMixHub viscosity set.

Experiment: xn = mol fraction of the nth substance listed

CC(=O)CC(C)C + CC(=O)O
viscosity [mPa·s]
Details | 293.15 K | 298.15 K | 308.15 K | 318.15 K
101.32 kPa, x1 = 0.048 | 1.179 | 1.085 | 0.9387 | 0.82
101.32 kPa, x1 = 0.102 | – | – | – | 0.7844
101.32 kPa, x1 = 0.103 | 1.122 | 1.037 | 0.8955 | –
101.32 kPa, x1 = 0.164 | 1.065 | 0.9866 | 0.8505 | 0.7456
101.32 kPa, x1 = 0.233 | – | – | – | 0.708
101.32 kPa, x1 = 0.234 | 1.004 | 0.9325 | 0.803 | –
101.32 kPa, x1 = 0.313 | – | – | – | 0.6696
101.32 kPa, x1 = 0.314 | 0.9417 | 0.8743 | 0.7592 | –
101.32 kPa, x1 = 0.405 | – | – | – | 0.6271
101.32 kPa, x1 = 0.406 | 0.8773 | 0.8108 | 0.7072 | –
101.32 kPa, x1 = 0.514 | 0.8105 | 0.752 | 0.6636 | 0.5844
101.32 kPa, x1 = 0.646 | – | – | – | 0.5401
101.32 kPa, x1 = 0.647 | 0.7427 | 0.688 | 0.6078 | –
101.32 kPa, x1 = 0.805 | – | 0.6272 | 0.5546 | 0.4944
101.32 kPa, x1 = 0.806 | 0.6691 | – | – | –
101.33 kPa, x1 = 0.048 | 1.179 | 1.085 | 0.9387 | 0.82
101.33 kPa, x1 = 0.102 | – | – | – | 0.7844
101.33 kPa, x1 = 0.103 | 1.122 | 1.037 | 0.8955 | –
101.33 kPa, x1 = 0.164 | 1.065 | 0.9866 | 0.8505 | 0.7456
101.33 kPa, x1 = 0.233 | – | – | – | 0.708
101.33 kPa, x1 = 0.234 | 1.004 | 0.9325 | 0.803 | –
101.33 kPa, x1 = 0.313 | – | – | – | 0.6696
101.33 kPa, x1 = 0.314 | 0.9417 | 0.8743 | 0.7592 | –
101.33 kPa, x1 = 0.405 | – | – | – | 0.6271
101.33 kPa, x1 = 0.406 | 0.8773 | 0.8108 | 0.7072 | –
101.33 kPa, x1 = 0.514 | 0.8105 | 0.752 | 0.6636 | 0.5844
101.33 kPa, x1 = 0.646 | – | – | – | 0.5401
101.33 kPa, x1 = 0.647 | 0.7427 | 0.688 | 0.6078 | –
101.33 kPa, x1 = 0.805 | – | 0.6272 | 0.5546 | 0.4944
101.33 kPa, x1 = 0.806 | 0.6691 | – | – | –

CC(=O)CC(C)C + CC(C)=O
298.15 K, 101 kPa
Details | viscosity [mPa·s]
x2 = 0.0872 | 0.5206
x2 = 0.2689 | 0.474
x2 = 0.3526 | 0.4524
x2 = 0.359 | 0.45
x2 = 0.5077 | 0.4139
x2 = 0.7067 | 0.366
x2 = 0.7731 | 0.3515
x2 = 0.8344 | 0.3373
x2 = 0.835 | 0.3362
x2 = 0.9323 | 0.3141

O=C1CCCCC1 + CC(C)CC(C)(C)C
viscosity [mPa·s]
Details | 293.15 K | 298.15 K | 303.15 K | 308.15 K | 313.15 K
101 kPa, x1 = 0.0911 | 0.5562 | 0.5245 | 0.497 | 0.4702 | 0.4465
101 kPa, x1 = 0.127 | – | 0.551 | – | – | –
101 kPa, x1 = 0.1761 | 0.6094 | 0.5717 | 0.5392 | 0.5101 | 0.4831
101 kPa, x1 = 0.1855 | – | 0.575 | – | – | –
101 kPa, x1 = 0.3071 | – | 0.643 | – | – | –
101 kPa, x1 = 0.3304 | 0.7148 | 0.6685 | 0.6303 | 0.5925 | 0.5593
101 kPa, x1 = 0.4005 | 0.7809 | 0.729 | 0.6869 | 0.643 | 0.6047
101 kPa, x1 = 0.4354 | – | 0.741 | – | – | –
101 kPa, x1 = 0.5171 | – | 0.836 | – | – | –
101 kPa, x1 = 0.5288 | 0.9379 | 0.8709 | 0.8135 | 0.7598 | 0.7134
101 kPa, x1 = 0.5877 | 1.037 | 0.9596 | 0.8935 | 0.8326 | 0.7791
101 kPa, x1 = 0.6149 | – | 0.969 | – | – | –
101 kPa, x1 = 0.6961 | 1.231 | 1.132 | 1.046 | 0.969 | 0.9139
101 kPa, x1 = 0.7054 | – | 1.114 | – | – | –
101 kPa, x1 = 0.7937 | 1.479 | 1.353 | 1.248 | 1.152 | 1.07
101 kPa, x1 = 0.7982 | – | 1.317 | – | – | –
101 kPa, x1 = 0.8836 | – | 1.526 | – | – | –
101 kPa, x1 = 0.9232 | 1.947 | 1.771 | 1.628 | 1.49 | 1.368
101.33 kPa, x1 = 0.103 | – | 0.514 | 0.485 | 0.458 | –
101.33 kPa, x1 = 0.2023 | – | 0.563 | 0.53 | 0.501 | –
101.33 kPa, x1 = 0.3 | – | 0.626 | 0.589 | 0.556 | –
101.33 kPa, x1 = 0.4044 | – | 0.717 | 0.667 | 0.623 | –
101.33 kPa, x1 = 0.5041 | – | 0.808 | 0.751 | 0.702 | –
101.33 kPa, x1 = 0.6035 | – | 0.932 | 0.865 | 0.805 | –
101.33 kPa, x1 = 0.7029 | – | 1.104 | 1.016 | 0.953 | –
101.33 kPa, x1 = 0.8014 | – | 1.309 | 1.199 | 1.106 | –
101.33 kPa, x1 = 0.9008 | – | 1.58 | 1.44 | 1.322 | –

CC(=O)CC(C)C + CC(C)CCO
viscosity [mPa·s]
Details | x1 = 0.1006 | x1 = 0.2027 | x1 = 0.3201 | x1 = 0.3948 | x1 = 0.5073 | x1 = 0.6072 | x1 = 0.7013 | x1 = 0.8032 | x1 = 0.8927
298.15 K, 101 kPa | 2.58 | 1.89 | 1.4 | 1.2 | 0.965 | 0.839 | 0.728 | 0.648 | 0.595
298.15 K, 101.3 kPa | 2.58 | 1.89 | 1.4 | 1.2 | 0.965 | 0.839 | 0.728 | 0.648 | 0.595
303.15 K, 101.3 kPa | 2.26 | 1.69 | 1.28 | 1.1 | 0.903 | 0.781 | 0.682 | 0.617 | 0.566
308.15 K, 101.3 kPa | 1.99 | 1.51 | 1.17 | 1.01 | 0.837 | 0.728 | 0.64 | 0.579 | 0.534
313.15 K, 101.3 kPa | 1.75 | 1.36 | 1.05 | 0.926 | 0.766 | 0.681 | 0.602 | 0.545 | 0.506

CC(=O)CC(C)C + CC(C)CO
viscosity [mPa·s], 101 kPa
Details | 298.15 K | 303.15 K | 308.15 K
x2 = 0.3997 | – | 0.703 | 0.656
x2 = 0.4937 | 0.851 | 0.786 | 0.73

O=C1CCCCC1 + CC(C)CO
298.15 K, 101 kPa
Details | viscosity [mPa·s]
x1 = 0.1012 | 2.58
x1 = 0.2016 | 2.15
x1 = 0.299 | 1.9
x1 = 0.3994 | 1.77
x1 = 0.5008 | 1.72
x1 = 0.5978 | 1.7
x1 = 0.6982 | 1.69
x1 = 0.7981 | 1.71
x1 = 0.8985 | 1.77

CC(C)CC(=O)CC(C)C + CC(C)O
viscosity [mPa·s], 100 kPa
Details | x1 = 0.0818 | x1 = 0.1619 | x1 = 0.2451 | x1 = 0.3518 | x1 = 0.4413 | x1 = 0.5637 | x1 = 0.6549 | x1 = 0.7367 | x1 = 0.8528 | x1 = 0.9379
293.15 K | 1.93 | 1.52 | 1.19 | 0.92 | 0.76 | 0.65 | 0.63 | 0.66 | 0.77 | 0.87
298.15 K | 1.73 | 1.41 | 1.14 | 0.88 | 0.72 | 0.62 | 0.61 | 0.64 | 0.74 | 0.83
303.15 K | 1.51 | 1.26 | 1.05 | 0.83 | 0.7 | 0.6 | 0.59 | 0.62 | 0.72 | 0.8
308.15 K | 1.32 | 1.12 | 0.95 | 0.77 | 0.66 | 0.58 | 0.57 | 0.6 | 0.68 | 0.76
313.15 K | 1.18 | 1.01 | 0.87 | 0.72 | 0.63 | 0.56 | 0.55 | 0.57 | 0.64 | 0.71
318.15 K | 1.05 | 0.92 | 0.8 | 0.67 | 0.6 | 0.54 | 0.53 | 0.55 | 0.61 | 0.67
323.15 K | 0.93 | 0.82 | 0.72 | 0.63 | 0.57 | 0.52 | 0.51 | 0.53 | 0.58 | 0.63

CC(C)CC(C)(C)C + CC(C)O
viscosity [mPa·s], 101 kPa
Details | 298.15 K | 308.15 K
x1 = 0.0513 | 1.722 | –
x1 = 0.0555 | 1.703 | –
x1 = 0.1045 | 1.47 | –
x1 = 0.1511 | 1.3 | –
x1 = 0.2103 | 1.123 | –
x1 = 0.2394 | 1.066 | –
x1 = 0.2822 | 0.947 | –
x1 = 0.4108 | 0.751 | –
x1 = 0.4264 | 0.734 | –
x1 = 0.5195 | 0.64 | –
x1 = 0.5751 | 0.599 | –
x1 = 0.6545 | 0.562 | –
x1 = 0.6978 | 0.54 | –
x1 = 0.8094 | 0.505 | –
x1 = 0.9505 | 0.49 | –
x2 = 0.05 | 0.482 | 0.432
x2 = 0.1 | 0.486 | 0.434
x2 = 0.1501 | 0.493 | 0.44
x2 = 0.2 | 0.503 | 0.447
x2 = 0.25 | 0.515 | 0.457
x2 = 0.3 | 0.53 | 0.468
x2 = 0.35 | 0.55 | 0.483
x2 = 0.4 | 0.576 | 0.501
x2 = 0.45 | 0.608 | 0.524
x2 = 0.5 | 0.646 | 0.552
x2 = 0.55 | 0.694 | 0.586
x2 = 0.6 | 0.751 | 0.628
x2 = 0.65 | 0.819 | 0.677
x2 = 0.7 | 0.901 | 0.736
x2 = 0.75 | 1.003 | 0.806
x2 = 0.8 | 1.122 | 0.898
x2 = 0.85 | 1.277 | 1.006
x2 = 0.9 | 1.407 | 1.145
x2 = 0.95 | 1.707 | 1.31

CCCCCC(=O)O + CC(C)[C@@H]1CC[C@@H](C)C[C@H]1O
Details | viscosity [mPa·s]
298 K, 101 kPa, x2 = 0.333 | 8.9
